Test system: 439559-082-T-J2-PDC spheroids viability
Assay: Anticancer human tumor 439559-082-T-J2-PDC patient-derived colon adenocarcinoma cell line growth inhibition [GQUAD]
Conditions: for IC50: curve of first compound; for viability, T/C: stronger effect = lower value
Method in brief: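 Tumor cells were grown as complex spheroids with HUVEC endothelial cells and mesenchymal stem cells as stroma. G-quadruplex stabilizers were combined with targeted agents over half-log dilutions from near the clinical Cmax, or from 10 microM.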
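Also: spheroids exposed to the agents for 7 days before readout.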
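For viability, T/C in this document: percent of luminescence signal in DMSO vehicle wells taken as 100% viability.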

## O=C(NO)c1cnc(N2CCN(S(=O)(=O)c3ccc4ccccc4c3)CC2)nc1 + Cc1cnc(CNC(=O)c2c(=O)c3ccc(N4CCCN(C)CC4)nc3n3c2sc2ccccc23)cn1
Second compound 0.0316 µM
  IC50: 546 nM
Second compound 0.1 µM
  IC50: 447 nM
Second compound 0.316 µM
  IC50: 450 nM
Second compound 1 µM
  IC50: 353 nM
Second compound 3.16 µM
  IC50: 380 nM
Second compound 10 µM
  IC50: 263 nM
Second compound 0.0316 µM, first compound 0.0316 µM
  viability, T/C: 90.2%
Second compound 0.0316 µM, first compound 0.1 µM
  viability, T/C: 88.9%
Second compound 0.0316 µM, first compound 0.316 µM
  viability, T/C: 68.9%
Second compound 0.0316 µM, first compound 1 µM
  viability, T/C: 29.1%
Second compound 0.0316 µM, first compound 3.16 µM
  viability, T/C: 0.23%
Second compound 0.0316 µM, first compound 10 µM
  viability, T/C: 0.25%
Second compound 0.1 µM, first compound 0.0316 µM
  viability, T/C: 93.5%
Second compound 0.1 µM, first compound 0.1 µM
  viability, T/C: 85.8%
Second compound 0.1 µM, first compound 0.316 µM
  viability, T/C: 67.2%
Second compound 0.1 µM, first compound 1 µM
  viability, T/C: 10.9%
Second compound 0.1 µM, first compound 3.16 µM
  viability, T/C: 0.24%
Second compound 0.1 µM, first compound 10 µM
  viability, T/C: 0.21%
Second compound 0.316 µM, first compound 0.0316 µM
  viability, T/C: 98.1%
Second compound 0.316 µM, first compound 0.1 µM
  viability, T/C: 83.4%
Second compound 0.316 µM, first compound 0.316 µM
  viability, T/C: 66.7%
Second compound 0.316 µM, first compound 1 µM
  viability, T/C: 15.7%
Second compound 0.316 µM, first compound 3.16 µM
  viability, T/C: 0.18%
Second compound 0.316 µM, first compound 10 µM
  viability, T/C: 0.24%
Second compound 1 µM, first compound 0.0316 µM
  viability, T/C: 77.9%
Second compound 1 µM, first compound 0.1 µM
  viability, T/C: 73.2%
Second compound 1 µM, first compound 0.316 µM
  viability, T/C: 53.9%
Second compound 1 µM, first compound 1 µM
  viability, T/C: 15.3%
Second compound 1 µM, first compound 3.16 µM
  viability, T/C: 0.16%
Second compound 1 µM, first compound 10 µM
  viability, T/C: 0.14%
Second compound 3.16 µM, first compound 0.0316 µM
  viability, T/C: 72%
Second compound 3.16 µM, first compound 0.1 µM
  viability, T/C: 64.5%
Second compound 3.16 µM, first compound 0.316 µM
  viability, T/C: 58.1%
Second compound 3.16 µM, first compound 1 µM
  viability, T/C: 8.79%
Second compound 3.16 µM, first compound 3.16 µM
  viability, T/C: 0.12%
Second compound 3.16 µM, first compound 10 µM
  viability, T/C: 0.18%
Second compound 10 µM, first compound 0.0316 µM
  viability, T/C: 62.7%
Second compound 10 µM, first compound 0.1 µM
  viability, T/C: 62.8%
Second compound 10 µM, first compound 0.316 µM
  viability, T/C: 47.6%
Second compound 10 µM, first compound 1 µM
  viability, T/C: 0.23%
Second compound 10 µM, first compound 3.16 µM
  viability, T/C: 0.17%
Second compound 10 µM, first compound 10 µM
  viability, T/C: 0.18%
